Source: patent US11591341B2 (ALIGOS THERAPEUTICS, INC., priority 2019, dated 2023)

Tested on: HBV
Test: HBV-DNA Antiviral Assay Using HepG2.117 Cells (intracellular HBV DNA by qPCR)
Assay type: cell-based, hepatitis B virus (genotype D)
Conditions: Hepatitis B virus, HepG2.117
In short: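 HepG2.117 cells (genotype D HBV, Tet-off) were induced by doxycycline withdrawal and treated for 3 days with 9 concentrations in 4-fold dilution, 2% DMSO final. Intracellular HBV DNA was measured by qPCR against a standard curve, with ATPlite viability read in parallel. EC50, EC90 and CC50 came from fits against the DMSO control.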

Structure (SMILES): CC1(C)C(=O)Nc2ccc(-n3c(C(=O)NCc4ccccc4)c4n(c3=O)CCN(C(=O)c3ccc(Br)c(Cl)c3)C4)cc21 [Example 397, N-benzyl-7-(4-bromo-3-chloro-benozyl)-2-(3,3-dimethyl-2-oxo-indolin-5-yl)-3-oxo-6,8-dihydro-5H-imidazo[1,5-a]pyrazine-1-carboxamide]
- EC50: 0.5 to 5 µM

Structure (SMILES): COCC1(N(C)C(=O)c2c3n(c(=O)n2-c2ccc(OC)cc2)CCN(C(=O)c2ccc(Cl)c(Cl)c2)C3)CC1 [Example 111, 7-(3,4-dichlorobenzoyl)-N-[1-(methoxymethyl)cyclopropyl]-2-(4-methoxyphenyl)-N-methyl-3-oxo-6,8-dihydro-5H-imidazo[1,5-a]pyrazine-1-carboxamide]
- EC50: > 5 µM

Structure (SMILES): N#CCOc1ccc(-n2c(C(=O)NCc3ccccc3)c3n(c2=O)CCN(C(=O)c2ccc(Br)c(Cl)c2)C3)cc1 [Example 265, N-benzyl-7-(4-bromo-3-chloro-benozyl)-2-[4-(cyanomethoxy)phenyl]-3-oxo-6,8-dihydro-5H-imidazo[1,5-a]pyrazine-1-carboxamide]
- EC50: 0.5 to 5 µM

Structure (SMILES): O=C(NCc1ccccc1)c1c2n(c(=O)n1-c1ccc(N3CCOCC3)cc1)CCN(C(=O)c1ccc(Br)c(Cl)c1)C2 [Example 278, N-benzyl-7-(4-bromo-3-chloro-benzoyl)-2-(4-morpholinophenyl)-3-oxo-6,8-dihydro-5H-imidazo[1,5-a]pyrazine-1-carboxamide]
- EC50: 0.1 to 0.5 µM

Structure (SMILES): CC(C)Oc1ccc(-n2c(C(=O)NCc3ccccc3)c3n(c2=O)CCN(C(=O)c2ccc(Br)c(C#N)c2)C3)cc1 [Example 217, N-benzyl-7-(4-bromo-3-cyano-benzoyl)-2-(4-isopropoxyphenyl)-3-oxo-6,8-dihydro-5H-imidazo[1,5-a]pyrazine-1-carboxamide]
- EC50: 0.5 to 5 µM

Structure (SMILES): O=C(NCc1ccccc1-c1ncco1)c1c2n(c(=O)n1-c1ccc(OC3CC3)cc1)CCN(C(=O)c1ccc(Br)c(Cl)c1)C2 [Example 366, 7-(4-bromo-3-chloro-benzoyl)-2-[4-(cyclopropoxy)phenyl]-N-[(2-oxazol-2-ylphenyl)methyl]-3-oxo-6,8-dihydro-5H-imidazo[1,5-a]pyrazine-1-carboxamide]
- EC50: < 0.1 µM

Structure (SMILES): NC(=O)COc1ccc(-n2c(C(=O)NCc3ccccc3)c3n(c2=O)CCN(C(=O)c2ccc(Br)c(Cl)c2)C3)cc1 [Example 285, 2-[4-(2-amino-2-oxo-ethoxy)phenyl]-N-benzyl-7-(4-bromo-3-chloro-benzoyl)-3-oxo-6,8-dihydro-5H-imidazo[1,5-a]pyrazine-1-carboxamide]
- EC50: 0.5 to 5 µM

Structure (SMILES): COc1ccc(-n2c(C(=O)N[C@@H](c3ccccc3)C(F)F)c3n(c2=O)CCN(C(=O)c2ccc(Br)c(Cl)c2)C3)cc1 (stereo in doubt) [Example 252, 7-(4-bromo-3-chloro-benzoyl)-2-(4-methoxyphenyl)-3-oxo-N-[rac-(1S)-2,2-difluoro-1-phenyl-ethyl]-6,8-dihydro-5H-imidazo[1,5-a]pyrazine-1-carboxamide]
- EC50: 0.1 to 0.5 µM

Structure (SMILES): O=C(NCc1c(F)cccc1Cl)c1c2n(c(=O)n1-c1ccc(OC3CC3)cc1)CCN(C(=O)c1ccc(Br)c(Cl)c1)C2 [Example 305, 7-(4-bromo-3-chloro-benzoyl)-N-[(2-chloro-6-fluoro-phenyl)methyl]-2-[4-(cyclopropoxy)phenyl]-3-oxo-6,8-dihydro-5H-imidazo[1,5-a]pyrazine-1-carboxamide]
- EC50: 0.1 to 0.5 µM

Structure (SMILES): O=C(NCc1ccccc1-n1cc(F)cn1)c1c2n(c(=O)n1-c1ccc(OCC(F)(F)F)cc1)CCN(C(=O)c1ccc(Br)c(Cl)c1)C2 [Example 327, 7-(4-bromo-3-chloro-benzoyl)-N-[[2-(4-fluoropyrazol-1-yl)phenyl]methyl]-3-oxo-2-[4-(2,2,2-trifluoroethoxy)phenyl]-6,8-dihydro-5H-imidazo[1,5-a]pyrazine-1-carboxamide]
- EC50: < 0.1 µM
